Tests used:
[1] = biological target: Glutamate receptor ionotropic, NMDA 2B (Rattus norvegicus, UniProt P35439+Q00960); assay: Displacement of [3H]racemic CP-101606 from rat NR2B receptor in P2 membrane; format: cell membranes
[2] = Metabolic stability assessed as half life in human liver microsomes; format: ADME, Microsome
[3] = biological target: Voltage-gated inwardly rectifying potassium channel KCNH2 (Homo sapiens, UniProt Q12809); assay: Inhibition of hERG; format: toxicity
hERG = hERG (Homo sapiens, UniProt Q12809); assay: Inhibition of hERG current at 10 uM; format: toxicity
Sequence of hERG (Q12809 whole entry): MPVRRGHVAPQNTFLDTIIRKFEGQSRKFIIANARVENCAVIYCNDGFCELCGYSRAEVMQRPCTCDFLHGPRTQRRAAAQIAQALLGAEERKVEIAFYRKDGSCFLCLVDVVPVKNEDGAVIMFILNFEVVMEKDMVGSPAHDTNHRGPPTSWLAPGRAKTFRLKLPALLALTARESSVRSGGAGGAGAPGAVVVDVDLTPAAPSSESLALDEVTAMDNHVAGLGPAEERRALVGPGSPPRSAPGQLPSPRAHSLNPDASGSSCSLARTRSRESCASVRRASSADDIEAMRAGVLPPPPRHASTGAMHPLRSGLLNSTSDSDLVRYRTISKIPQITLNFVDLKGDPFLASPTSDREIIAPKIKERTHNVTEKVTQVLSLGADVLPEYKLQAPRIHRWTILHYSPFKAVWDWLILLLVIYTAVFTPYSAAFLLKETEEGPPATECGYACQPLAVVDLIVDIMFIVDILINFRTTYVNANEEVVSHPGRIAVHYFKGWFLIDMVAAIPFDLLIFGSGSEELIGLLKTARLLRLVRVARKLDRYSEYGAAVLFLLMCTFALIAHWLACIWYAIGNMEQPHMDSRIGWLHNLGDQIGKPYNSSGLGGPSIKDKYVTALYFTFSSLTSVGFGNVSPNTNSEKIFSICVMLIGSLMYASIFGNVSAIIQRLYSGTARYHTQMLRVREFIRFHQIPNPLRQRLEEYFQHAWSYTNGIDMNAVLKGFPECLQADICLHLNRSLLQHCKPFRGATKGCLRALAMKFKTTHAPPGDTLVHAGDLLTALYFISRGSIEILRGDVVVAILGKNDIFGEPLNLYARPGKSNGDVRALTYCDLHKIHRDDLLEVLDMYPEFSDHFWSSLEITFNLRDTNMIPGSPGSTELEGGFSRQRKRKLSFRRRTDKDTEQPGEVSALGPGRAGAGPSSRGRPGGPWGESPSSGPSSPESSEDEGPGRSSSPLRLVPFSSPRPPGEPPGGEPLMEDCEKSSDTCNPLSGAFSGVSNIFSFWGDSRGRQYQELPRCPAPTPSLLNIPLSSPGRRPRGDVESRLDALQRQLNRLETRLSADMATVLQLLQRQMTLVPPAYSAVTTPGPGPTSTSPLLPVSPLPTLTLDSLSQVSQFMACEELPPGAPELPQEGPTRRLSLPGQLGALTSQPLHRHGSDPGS

[4] = Bioavailability in rat; format: ADME, organism-based; settings: in vivo
Mus musculus = species: Mus musculus; assay: Analgesic activity in PSL mouse model assessed as latency to paw withdrawal; format: functional; settings: read-out: MED
Rattus norvegicus = assay: Effect on haloperidol catalepsy in po dosed rat assessed as […]; format: functional; settings: read-out: MED

Sequence of Glutamate receptor ionotropic, NMDA 2B (Q00960 whole entry, one chain of several): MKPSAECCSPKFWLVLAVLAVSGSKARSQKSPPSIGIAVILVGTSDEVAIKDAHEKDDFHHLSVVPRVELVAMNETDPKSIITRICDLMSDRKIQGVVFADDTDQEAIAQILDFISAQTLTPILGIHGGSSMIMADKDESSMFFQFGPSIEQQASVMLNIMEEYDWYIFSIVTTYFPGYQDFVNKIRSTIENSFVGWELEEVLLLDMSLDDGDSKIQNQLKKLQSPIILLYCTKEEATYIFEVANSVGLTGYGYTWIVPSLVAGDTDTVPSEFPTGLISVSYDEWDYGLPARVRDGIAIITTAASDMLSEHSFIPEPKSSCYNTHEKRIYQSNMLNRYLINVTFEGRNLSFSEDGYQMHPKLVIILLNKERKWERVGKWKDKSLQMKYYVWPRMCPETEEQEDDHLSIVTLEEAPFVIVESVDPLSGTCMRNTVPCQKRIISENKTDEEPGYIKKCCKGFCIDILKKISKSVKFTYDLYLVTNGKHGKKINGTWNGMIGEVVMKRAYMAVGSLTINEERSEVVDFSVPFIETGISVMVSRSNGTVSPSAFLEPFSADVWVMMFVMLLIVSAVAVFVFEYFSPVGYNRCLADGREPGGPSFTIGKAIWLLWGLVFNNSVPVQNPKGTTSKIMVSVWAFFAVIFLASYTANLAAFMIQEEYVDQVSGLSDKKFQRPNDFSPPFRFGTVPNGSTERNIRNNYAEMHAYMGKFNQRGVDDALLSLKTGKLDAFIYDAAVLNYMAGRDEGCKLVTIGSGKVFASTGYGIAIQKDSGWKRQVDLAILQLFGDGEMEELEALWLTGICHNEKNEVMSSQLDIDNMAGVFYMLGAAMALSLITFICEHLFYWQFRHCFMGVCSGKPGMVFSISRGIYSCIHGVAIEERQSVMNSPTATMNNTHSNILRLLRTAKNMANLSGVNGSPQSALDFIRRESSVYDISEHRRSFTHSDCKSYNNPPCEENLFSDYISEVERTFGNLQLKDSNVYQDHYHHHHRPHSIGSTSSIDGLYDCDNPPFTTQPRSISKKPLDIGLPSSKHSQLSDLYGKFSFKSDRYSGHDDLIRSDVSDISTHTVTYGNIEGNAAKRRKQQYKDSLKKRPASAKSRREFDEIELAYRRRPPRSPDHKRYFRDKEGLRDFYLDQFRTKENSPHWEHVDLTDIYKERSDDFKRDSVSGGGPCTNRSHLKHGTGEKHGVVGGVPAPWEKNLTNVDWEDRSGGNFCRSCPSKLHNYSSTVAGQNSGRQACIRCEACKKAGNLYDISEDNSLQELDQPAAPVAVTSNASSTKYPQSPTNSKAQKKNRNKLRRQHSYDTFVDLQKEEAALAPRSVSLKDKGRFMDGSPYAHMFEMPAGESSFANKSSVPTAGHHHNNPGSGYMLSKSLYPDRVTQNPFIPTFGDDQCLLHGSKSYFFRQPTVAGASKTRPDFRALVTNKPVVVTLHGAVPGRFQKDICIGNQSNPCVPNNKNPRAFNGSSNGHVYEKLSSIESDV
Sequence of Voltage-gated inwardly rectifying potassium channel KCNH2 (Q12809 whole entry): as the sequence (Q12809 whole entry) above

O=C(NC[C@H]1CC[C@@H](COc2ccccc2)CC1)c1cc(F)c(O)c(F)c1
Ki [1]: 12 nM

O=C1CCc2cc(C(=O)NC[C@H]3CC[C@@H](COc4ccccc4)CC3)ccc2N1
Ki [1]: 18 nM

O=C(NC[C@H]1CC[C@@H](CCOc2ccccc2)CC1)c1cc[nH]c1
Ki [1]: 6.8 nM

O=C(NC[C@H]1CC[C@@H](CCOc2ccccc2)CC1)c1ccn[nH]1
Ki [1]: 8.9 nM
half-life [2]: 36 min

O=C1C=CC(C(=O)NC[C@H]2CC[C@@H](CCOc3ccccc3)CC2)NN1 (stereo partly drawn)
Ki [1]: 11 nM

O=C(NC[C@H]1CC[C@@H](CCOc2ccccc2)CC1)c1cn[nH]c1
Ki [1]: 4.2 nM
IC50 [3]: > 30000 nM
inhibition at 10 µM (hERG): 36%
bioavailability [4]: 43%
minimal effective dose (Mus musculus): 3 mg/kg

O=C(NCc1cccc(OCCc2ccccc2)c1)c1ccc(O)cc1
Ki [1]: 5.6 nM

O=C(NC[C@H]1CC[C@@H](COc2ccccc2)CC1)c1ccc(O)cc1
Ki [1]: 6.8 nM
minimal effective dose (Rattus norvegicus): 3 mg/kg
half-life [2]: 2.3 min

O=C(NC[C@H]1CC[C@@H](CCOc2ccccc2)CC1)c1cc(F)c(O)c(F)c1
Ki [1]: 8.5 nM

Cc1n[nH]c(C)c1C(=O)NC[C@H]1CC[C@@H](COc2ccccc2)CC1
Ki [1]: > 100 nM

O=C1CCc2cc(C(=O)NC[C@H]3CC[C@@H](CCOc4ccccc4)CC3)ccc2N1
Ki [1]: 5.9 nM

O=C1C=CC(C(=O)NC[C@H]2CC[C@@H](COc3ccccc3)CC2)NN1 (stereo partly drawn)
Ki [1]: > 100 nM

O=C(NC[C@H]1CC[C@@H](COc2ccccc2)CC1)c1ccn[nH]1
Ki [1]: > 100 nM

Nc1n[nH]cc1C(=O)NC[C@H]1CC[C@@H](CCOc2ccccc2)CC1
Ki [1]: 3.7 nM
half-life [2]: 59 min

Nc1[nH]ncc1C(=O)NC[C@H]1CC[C@@H](COc2ccccc2)CC1
Ki [1]: > 100 nM

O=C(NC[C@H]1CC[C@@H](CCOc2ccccc2)CC1)c1ccc(=O)[nH]n1
Ki [1]: 5.6 nM

O=C(NC[C@H]1CC[C@@H](CCOc2ccccc2)CC1)c1ccc(O)cc1
Ki [1]: 20 nM

O=C(NC[C@H]1CC[C@@H](CCOc2ccccc2)CC1)c1ccc2[nH]ncc2c1
Ki [1]: 15 nM

O=C(NC[C@H]1CC[C@@H](COc2ccccc2)CC1)c1ccc(=O)[nH]n1
Ki [1]: > 100 nM

O=C(NCc1cccc(C(=O)NCc2ccccc2)c1)c1ccc(O)cc1
Ki [1]: 15 nM
IC50 [3]: > 30000 nM

O=C(NC[C@H]1CC[C@@H](COc2ccccc2)CC1)c1cc[nH]c1
Ki [1]: 84 nM

Cc1n[nH]c(C)c1C(=O)NC[C@H]1CC[C@@H](CCOc2ccccc2)CC1
Ki [1]: > 100 nM

O=C(NC[C@H]1CC[C@@H](COc2ccccc2)CC1)c1cn[nH]c1
Ki [1]: 14 nM
half-life [2]: 44 min

— ChEMBL document CHEMBL1139808, “Structure-activity relationship study of novel NR2B-selective antagonists with arylamides to avoid reactive metabolites formation” (Bioorg Med Chem Lett, 2007)
